Read-outs that look alike come from different tables or passages of the source.
Assay: Plasma and urine pharmacokinetics (HPLC-UV) in patients after 60-min IV infusion
Assay type: in vivo, human
Settings: human; for Cmax / AUC / MRT / half-life: plasma, intravenous, day 1 course 1; for Cmax: observed value; for MRT: read-out: MRT
Excerpt: Fostriecin (CI-920) is a topoisomerase (topo) II catalytic activity inhibitor (Boritzki et al, 1988) (Figure 1). This novel class of topo II-targeting drugs is considered of potential value for treatment of patients with tumours resistant to classic topo II poisons, including anthracyclines and podophyllotoxins (Cummings and Smyth, 1993). The nuclear enzyme topo II is essential for the regulation of DNA conformation (reviewed in Osheroff et al, 1991). Central in its action is the formation of a complex with DNA. Stabilization of this complex by topo II poisons induces DNA damage and cell death (Froelich-Ammon and Osheroff, 1995). Decreased complex formation due to decreased topo II levels is considered to be an important mechanism of tumour-resistance to topo II poisons (Beck and Danks, 1991). The topo II catalytic inhibitor fostriecin is expected to have increased activity against tumour cells with low topo II levels and this was confirmed in in vitro studies (De Jong et al, 1991). […] Because of increased toxi- city of fostriecin in dogs compared to mice, a dose below one-third of the one-tenth mouse equivalent LD10, 2 mg m-2 day-1, was chosen as starting dose in humans (Clinical Brochure Fostriecin, 1991). […] We also performed an analysis of the human pharmacokinetics of fostriecin and ex vivo experiments to investigate if the plasma drug concentrations achieved were sufficient to inhibit a tenipo- side-resistant tumour cell line. The maximum tolerated dose (MTD) of fostriecin could not be established because drug supply was stopped prematurely. However, results of this study may provide a basis for continued clinical development of this agent. PATIENTS AND METHODS Patient selection, drug administration and evaluation Patient eligibility criteria were: histologically confirmed diagnosis of a solid tumour, no longer amenable to established forms of treatment; age 18-75 years; Eastern Cooperative Oncology Group (ECOG) performance status 2; life expectancy 12 weeks; no Phase I and pharmacokinetic study of the topoisomerase II catalytic inhibitor fostriecin RS de Jong1, NH Mulder1, DRA Uges2, DTh Sleijfer1, FJP Hoppener4, HJM Groen3, PHB Willemse1, WTA van der Graaf1 and EGE de Vries1 Departments of 1Medical Oncology, 2Pharmacy and Toxicology, and 3Pulmonary Diseases, University Hospital Groningen, The Netherlands; 4EORTC New Drug Development Office, Amsterdam, The Netherlands Summary We conducted a phase I and pharmacokinetic study of the topoisomerase II catalytic inhibitor fostriecin. Fostriecin was administered intravenously over 60 min on days 1-5 at 4-week intervals. Dose was escalated from 2 mg m-2 day-1 to 20 mg m-2 day-1 in 20 patients. Drug pharmacokinetics was analysed with high performance liquid chromatography with UV-detection. Plasma collected during drug administration was tested in vitro for growth inhibition of a teniposide-resistant small-cell lung cancer (SCLC) cell line. The predominant toxicities were elevated liver transaminases (maximum common toxicity criteria (CTC) grade 4) and serum creatinine (maximum CTC grade 2). […] Duration of elevated alanine-amino transferase (ALT) was dose-limiting in one patient at 20 mg m-2. Other frequent toxicities were grade 1-2 nausea/vomiting, fever and mild fatigue. […] A metabolite, most probably dephosphorylated fostriecin, was detected in plasma and urine. […] However, further escalation seems possible and is warranted to achieve potentially effective drug levels. Fostriecin has a short plasma half-life and longer duration of infusion should be considered. […]

[1] = 2 mg, patient no. 1, 2 mg m-2, one-compartment model
[2] = 2 mg, patient no. 3, 2 mg m-2, one-compartment model
[3] = 2 mg, patient no. 4, 2 mg m-2, one-compartment model
[4] = 4 mg, patient no. 5, 4 mg m-2, one-compartment model
[5] = 4 mg, patient no. 6, 4 mg m-2, one-compartment model
[6] = 4 mg, patient no. 7, 4 mg m-2, two-compartment model
[7] = 6.6 mg, patient no. 11, 6.6 mg m-2, two-compartment model
[8] = 6.6 mg, patient no. 12, 6.6 mg m-2, two-compartment model
[9] = 10 mg, patient no. 13, 10 mg m-2, two-compartment model
[10] = 10 mg, patient no. 15, 10 mg m-2, two-compartment model
[11] = 12.2 mg, patient no. 16, 12.2 mg m-2, two-compartment model

For `C[C@@](O)(/C=C/[C@H]1CC=CC(=O)O1)[C@@H](C[C@@H](O)\C=C/C=C\C=C\CO)OP(=O)(O)O` [fostriecin], the “number of patients with fostriecin detectable in plasma more than 7 h after infusion” value (in vivo) was “one”, the Cmax (2 mg, patient no. 1, 2 mg m-2) was 495 ng/mL and the AUC [1] was 739 ng·h/mL. For the same compound, the MRT [1] was 51.6 min, the half-life (2 mg, patient no. 1, 2 mg m-2, one-compartment model, read-out: t1/2 (converted)) was 36 min and the Cmax (2 mg, patient no. 3, 2 mg m-2) was 597 ng/mL. The AUC [2] was 810 ng·h/mL, the MRT [2] was 46.2 min and the half-life (2 mg, patient no. 3, 2 mg m-2, one-compartment model, read-out: t1/2 (converted)) was 32.4 min. For the same compound, the Cmax (2 mg, patient no. 4, 2 mg m-2) was 371 ng/mL, the AUC [3] was 468 ng·h/mL and the MRT [3] was 30.6 min. For the same compound, the half-life (2 mg, patient no. 4, 2 mg m-2, one-compartment model, read-out: t1/2 (converted)) was 21 min, the Cmax (4 mg, patient no. 5, 4 mg m-2) was 1160 ng/mL and the AUC [4] was 1360 ng·h/mL. It also gave an MRT [4] of 43.2 min, a half-life (4 mg, patient no. 5, 4 mg m-2, one-compartment model, read-out: t1/2 (converted)) of 30 min and a Cmax (4 mg, patient no. 6, 4 mg m-2) of 956 ng/mL. It also gave an AUC [5] of 1170 ng·h/mL, an MRT [5] of 40.2 min and a half-life (4 mg, patient no. 6, 4 mg m-2, one-compartment model, read-out: t1/2 (converted)) of 27.6 min. It also gave a Cmax (4 mg, patient no. 7, 4 mg m-2) of 940 ng/mL, an AUC [6] of 1490 ng·h/mL and an MRT [6] of 116 min. It also gave a half-life (4 mg, patient no. 7, 4 mg m-2, two-compartment model, read-out: t1/2 (initial) (converted)) of 15.6 min, a half-life (4 mg, patient no. 7, 4 mg m-2, two-compartment model, read-out: t1/2 (terminal) (converted)) of 122 min and a Cmax (6.6 mg, patient no. 11, 6.6 mg m-2) of 1400 ng/mL. It also gave an AUC [7] of 1650 ng·h/mL, an MRT [7] of 26.4 min and a half-life (6.6 mg, patient no. 11, 6.6 mg m-2, two-compartment model, read-out: t1/2 (initial) (converted)) of 5.4 min. The half-life (6.6 mg, patient no. 11, 6.6 mg m-2, two-compartment model, read-out: t1/2 (terminal) (converted)) was 28.2 min, the Cmax (6.6 mg, patient no. 12, 6.6 mg m-2) was 1860 ng/mL and the AUC [8] was 2450 ng·h/mL. The MRT [8] was 37.8 min, the half-life (6.6 mg, patient no. 12, 6.6 mg m-2, two-compartment model, read-out: t1/2 (initial) (converted)) was 15 min and the half-life (6.6 mg, patient no. 12, 6.6 mg m-2, two-compartment model, read-out: t1/2 (terminal) (converted)) was 73.2 min. It also gave a Cmax (10 mg, patient no. 13, 10 mg m-2) of 2240 ng/mL, an AUC [9] of 3350 ng·h/mL and an MRT [9] of 55.2 min. The half-life (10 mg, patient no. 13, 10 mg m-2, two-compartment model, read-out: t1/2 (initial) (converted)) was 100 min, the half-life (10 mg, patient no. 13, 10 mg m-2, two-compartment model, read-out: t1/2 (terminal) (converted)) was 55.8 min and the Cmax (10 mg, patient no. 15, 10 mg m-2) was 2450 ng/mL. It also gave an AUC [10] of 3770 ng·h/mL, an MRT [10] of 60.6 min and a half-life (10 mg, patient no. 15, 10 mg m-2, two-compartment model, read-out: t1/2 (initial) (converted)) of 18 min. It also gave a half-life (10 mg, patient no. 15, 10 mg m-2, two-compartment model, read-out: t1/2 (terminal) (converted)) of 83.4 min, a Cmax (12.2 mg, patient no. 16, 12.2 mg m-2) of 3200 ng/mL and an AUC [11] of 4230 ng·h/mL. It also gave an MRT [11] of 56.4 min, a half-life (12.2 mg, patient no. 16, 12.2 mg m-2, two-compartment model, read-out: t1/2 (initial) (converted)) of 13.2 min and a half-life (12.2 mg, patient no. 16, 12.2 mg m-2, two-compartment model, read-out: t1/2 (terminal) (converted)) of 70.2 min.
